Reference: the NIST ThermoML archive (doi:10.1016/j.jct.2011.08.016)
± gives the expanded uncertainty stated by the source.

Experiment: xn = mol fraction of the nth substance listed
Details: Liquid, Vibrating tube method

CCCCCCCCCC [decane] + CCCCCCC
Details | mass density [kg/m3]
343.11 K, 10000 kPa, x2 = 0.2594 | 691.9 ± 0.46
343.11 K, 10000 kPa, x2 = 0.952 | 656.24 ± 0.49
343.11 K, 11000 kPa, x2 = 0.2594 | 692.89 ± 0.47
343.11 K, 11000 kPa, x2 = 0.952 | 657.38 ± 0.5
343.11 K, 12000 kPa, x2 = 0.2594 | 693.86 ± 0.47
343.11 K, 12000 kPa, x2 = 0.952 | 658.49 ± 0.51
343.11 K, 13000 kPa, x2 = 0.2594 | 694.82 ± 0.48
343.11 K, 13000 kPa, x2 = 0.952 | 659.59 ± 0.51
343.11 K, 14000 kPa, x2 = 0.2594 | 695.76 ± 0.49
343.11 K, 14000 kPa, x2 = 0.952 | 660.67 ± 0.52
343.11 K, 15000 kPa, x2 = 0.2594 | 696.69 ± 0.49
343.11 K, 15000 kPa, x2 = 0.952 | 661.74 ± 0.53
343.11 K, 16000 kPa, x2 = 0.2594 | 697.6 ± 0.5
343.11 K, 16000 kPa, x2 = 0.952 | 662.78 ± 0.54
343.11 K, 17000 kPa, x2 = 0.2594 | 698.5 ± 0.51
343.11 K, 17000 kPa, x2 = 0.952 | 663.81 ± 0.54
343.11 K, 18000 kPa, x2 = 0.2594 | 699.38 ± 0.51
343.11 K, 18000 kPa, x2 = 0.952 | 664.84 ± 0.55
343.11 K, 19000 kPa, x2 = 0.2594 | 700.22 ± 0.52
343.11 K, 19000 kPa, x2 = 0.952 | 665.84 ± 0.56
343.11 K, 20000 kPa, x2 = 0.2594 | 701.09 ± 0.53
343.11 K, 20000 kPa, x2 = 0.952 | 666.82 ± 0.57
343.11 K, 21000 kPa, x2 = 0.2594 | 701.92 ± 0.53
343.11 K, 21000 kPa, x2 = 0.952 | 667.78 ± 0.58
343.11 K, 22000 kPa, x2 = 0.2594 | 702.73 ± 0.54
343.11 K, 22000 kPa, x2 = 0.952 | 668.7 ± 0.58
343.11 K, 23000 kPa, x2 = 0.2594 | 703.51 ± 0.55
343.11 K, 23000 kPa, x2 = 0.952 | 669.62 ± 0.59
343.11 K, 24000 kPa, x2 = 0.2594 | 704.28 ± 0.55
343.11 K, 24000 kPa, x2 = 0.952 | 670.52 ± 0.6
343.11 K, 25000 kPa, x2 = 0.2594 | 705.05 ± 0.56
343.11 K, 25000 kPa, x2 = 0.952 | 671.4 ± 0.61
353.06 K, 1000 kPa, x2 = 0.0531 | 682.62 ± 0.42
353.06 K, 2000 kPa, x2 = 0.0531 | 683.77 ± 0.42
353.06 K, 3000 kPa, x2 = 0.0531 | 684.88 ± 0.42
353.06 K, 4000 kPa, x2 = 0.0531 | 685.98 ± 0.43
353.06 K, 5000 kPa, x2 = 0.0531 | 687.07 ± 0.43
353.06 K, 6000 kPa, x2 = 0.0531 | 688.13 ± 0.44
353.06 K, 7000 kPa, x2 = 0.0531 | 689.17 ± 0.44
353.06 K, 8000 kPa, x2 = 0.0531 | 690.21 ± 0.45
353.06 K, 9000 kPa, x2 = 0.0531 | 691.24 ± 0.45
353.06 K, 10000 kPa, x2 = 0.0531 | 692.24 ± 0.46
353.06 K, 11000 kPa, x2 = 0.0531 | 693.24 ± 0.47
353.06 K, 12000 kPa, x2 = 0.0531 | 694.22 ± 0.47
353.06 K, 13000 kPa, x2 = 0.0531 | 695.18 ± 0.48
353.06 K, 14000 kPa, x2 = 0.0531 | 696.13 ± 0.48
353.06 K, 15000 kPa, x2 = 0.0531 | 697.07 ± 0.49
353.06 K, 16000 kPa, x2 = 0.0531 | 698 ± 0.5
353.06 K, 17000 kPa, x2 = 0.0531 | 698.9 ± 0.5
353.06 K, 18000 kPa, x2 = 0.0531 | 699.8 ± 0.51
353.06 K, 19000 kPa, x2 = 0.0531 | 700.69 ± 0.51
353.06 K, 20000 kPa, x2 = 0.0531 | 701.57 ± 0.52
353.06 K, 21000 kPa, x2 = 0.0531 | 702.43 ± 0.53
353.06 K, 22000 kPa, x2 = 0.0531 | 703.3 ± 0.53
353.06 K, 23000 kPa, x2 = 0.0531 | 704.13 ± 0.54
353.06 K, 24000 kPa, x2 = 0.0531 | 704.96 ± 0.55
353.06 K, 25000 kPa, x2 = 0.0531 | 705.78 ± 0.55
353.08 K, 1000 kPa, x2 = 0.5219 | 662.57 ± 0.43
353.08 K, 1000 kPa, x2 = 0.777 | 647.84 ± 0.43
353.08 K, 2000 kPa, x2 = 0.5219 | 663.78 ± 0.43
353.08 K, 2000 kPa, x2 = 0.777 | 649.19 ± 0.44
353.08 K, 3000 kPa, x2 = 0.5219 | 664.95 ± 0.43
353.08 K, 3000 kPa, x2 = 0.777 | 650.47 ± 0.44
353.08 K, 4000 kPa, x2 = 0.5219 | 666.13 ± 0.44
353.08 K, 4000 kPa, x2 = 0.777 | 651.73 ± 0.45
353.08 K, 5000 kPa, x2 = 0.5219 | 667.28 ± 0.45
353.08 K, 5000 kPa, x2 = 0.777 | 653.01 ± 0.45
353.08 K, 6000 kPa, x2 = 0.5219 | 668.44 ± 0.45
353.08 K, 6000 kPa, x2 = 0.777 | 654.25 ± 0.46
353.08 K, 7000 kPa, x2 = 0.5219 | 669.57 ± 0.46
353.08 K, 7000 kPa, x2 = 0.777 | 655.46 ± 0.47
353.08 K, 8000 kPa, x2 = 0.5219 | 670.7 ± 0.46
353.08 K, 8000 kPa, x2 = 0.777 | 656.67 ± 0.47
353.08 K, 9000 kPa, x2 = 0.5219 | 671.82 ± 0.47
353.08 K, 9000 kPa, x2 = 0.777 | 657.88 ± 0.48
353.08 K, 10000 kPa, x2 = 0.5219 | 672.93 ± 0.48
353.08 K, 10000 kPa, x2 = 0.777 | 659.06 ± 0.49
353.08 K, 11000 kPa, x2 = 0.5219 | 674.03 ± 0.48
353.08 K, 11000 kPa, x2 = 0.777 | 660.22 ± 0.49
353.08 K, 12000 kPa, x2 = 0.5219 | 675.1 ± 0.49
353.08 K, 12000 kPa, x2 = 0.777 | 661.36 ± 0.5
353.08 K, 13000 kPa, x2 = 0.5219 | 676.17 ± 0.49
353.08 K, 13000 kPa, x2 = 0.777 | 662.49 ± 0.51
353.08 K, 14000 kPa, x2 = 0.5219 | 677.22 ± 0.5
353.08 K, 14000 kPa, x2 = 0.777 | 663.61 ± 0.51
353.08 K, 15000 kPa, x2 = 0.5219 | 678.26 ± 0.51
353.08 K, 15000 kPa, x2 = 0.777 | 664.7 ± 0.52
353.08 K, 16000 kPa, x2 = 0.5219 | 679.28 ± 0.52
353.08 K, 16000 kPa, x2 = 0.777 | 665.77 ± 0.53
353.08 K, 17000 kPa, x2 = 0.5219 | 680.26 ± 0.52
353.08 K, 17000 kPa, x2 = 0.777 | 666.82 ± 0.54
353.08 K, 18000 kPa, x2 = 0.5219 | 681.28 ± 0.53
353.08 K, 18000 kPa, x2 = 0.777 | 667.86 ± 0.54
353.08 K, 19000 kPa, x2 = 0.5219 | 682.2 ± 0.54
